Reference: article PMC10294832, “Investigation of Naphthyl–Polyamine Conjugates as Antimicrobials and Antibiotic Enhancers” (Antibiotics, 2023)
Where “and” joins values, the source holds several entries; their conditions need not be identical. Equal values may be shown once. Blank lines part the entries; values can stand above or below the molecule they belong to.

Experiments:
[1] = tested on: S. aureus (ATCC 25,923 or ATCC 29213); assay: Antimicrobial MIC, S. aureus; type: cell-based, Staphylococcus aureus; details: Staphylococcus aureus, mean (n = 3)
Description: (§1) The susceptibility of bacterial strains S. aureus (ATCC 25,923 or 29213), E. coli (ATCC 25922), and P. aeruginosa (ATCC 27853) to antibiotics and compounds was determined according to previously reported protocols. Additional antimicrobial evaluation against MRSA (ATCC 43300), Klebsiella pneumoniae (ATCC 700603), Acinetobacter baumannii (ATCC 19606), Candida albicans (ATCC 90028), and Cryptococcus neoformans (ATCC 208821) was undertaken at the Community for Open Antimicrobial Drug Discovery at The University of Queensland (Australia) according to their standard protocols as reported previously.

MRSA (ATCC 43300) = assay: Antimicrobial MIC, MRSA; type: cell-based, methicillin-resistant Staphylococcus aureus; details: Staphylococcus aureus, MRSA (ATCC 43300); mean (n = 2); read-out: MIC MRSA
Description: as §1

[2] = tested on: P. aeruginosa (PAO1 or ATCC 27853); assay: Antimicrobial MIC, P. aeruginosa; type: cell-based; details: Pseudomonas aeruginosa; P. aeruginosa (PAO1 or ATCC 27853); mean (n = 3); read-out: MIC P. a
Description: as §1

E. coli (ATCC 25922) [3] = assay: Antimicrobial MIC, E. coli; type: cell-based, Escherichia coli; details: Escherichia coli, ATCC25922, E. coli (ATCC 25922); mean (n = 2)
Description: as §1

[4] = tested on: K. pneumoniae (ATCC 700603); assay: Antimicrobial MIC, K. pneumoniae; type: cell-based; details: Klebsiella pneumoniae, ATCC700603, mean (n = 2)
Description: as §1

[5] = tested on: A. baumannii (ATCC 19606); assay: Antimicrobial MIC, A. baumannii; type: cell-based, Acinetobacter baumannii; details: Acinetobacter baumannii, ATCC19606, A. baumannii (ATCC 19606); mean (n = 2)
Description: as §1

C. albicans (ATCC 90028) = assay: Antifungal MIC, C. albicans; type: cell-based; details: Candida albicans, ATCC90028, mean (n = 2)
Description: as §1

[6] = tested on: C. neoformans (ATCC 208821); assay: Antifungal MIC, C. neoformans; type: cell-based, Cryptococcus neoformans; details: Cryptococcus neoformans, ATCC208821, C. neoformans (ATCC 208821); mean (n = 2)
Description: as §1

Cytotoxicity assay = type: cell-based, human; details: human, HEK293 human embryonic kidney cells, concentration at 50% cytotoxicity on HEK293 cells; mean (n = 2)
Description: Cytotoxicity assays were conducted using the protocols previously reported.

human red blood cells = assay: Hemolytic assay; type: cell-based; details: concentration at 10% hemolytic activity on human red blood cells; mean (n = 2)
Description: Hemolysis assays were conducted using the protocols previously reported.

[7] = tested on: P. aeruginosa (ATCC 27853); assay: Enhancement of doxycycline activity; type: cell-based, Pseudomonas aeruginosa; details: for Dox/P.a: concentration required to restore doxycycline activity (combination MIC): doxycycline fixed at 4.5 µM (2 µg/mL), P. aeruginosa (ATCC 27853); for Dox/P.a fold change: ratio between intrinsic MIC of test compound and combination MIC, doxycycline 4.5 µM, P. aeruginosa
E. coli (ATCC 25922) [8] = assay: Enhancement of erythromycin activity; type: cell-based, Escherichia coli; details: for Eryth/E.c: concentration required to restore erythromycin activity (combination MIC): erythromycin fixed at 10.9 µM (8 µg/mL), E. coli (ATCC 25922); for Eryth/E.c fold change: ratio between intrinsic MIC of test compound and combination MIC, erythromycin 10.9 µM, E. coli
Description: Restoring enhancer concentrations were determined using previously reported protocols.

MIC [1]: 30 µM
MIC (MRSA (ATCC 43300)): 1.22 µM
MIC [2]: 608 µM
MIC (E. coli (ATCC 25922) [3]): 122 µM
MIC [4]: 38.9 µM
MIC [5]: 38.9 µM
MIC (C. albicans (ATCC 90028)): 38.9 µM
MIC [6]: 4.86 µM
Dox/P.a: concentration required to restore doxycycline activity (combination MIC) [7]: 608 µM
Eryth/E.c: concentration required to restore erythromycin activity (combination MIC) (E. coli (ATCC 25922) [8]): 60.8 µM
SMILES: O=C(NCCCNCCCCCCCCCCNCCCNC(=O)c1ccc2ccccc2c1)c1ccc2ccccc2c1.O=C(O)C(F)(F)F.O=C(O)C(F)(F)F [Compound 19e, N^1,N^10-Bis(3-(2-naphthamido)propyl)decane-1,10-diaminium 2,2,2-trifluoroacetate]
IC50 (Cytotoxicity assay): 4.75 µM
Hemolysis HC10 (human red blood cells): >38.9 µM
Dox/P.a fold change [7]: 1 fold
Eryth/E.c fold change (E. coli (ATCC 25922) [8]): 2 fold

MIC [1]: 13.3 µM
MIC (MRSA (ATCC 43300)): > 34.2 µM
MIC [2]: > 107 µM
MIC (E. coli (ATCC 25922) [3]): 107 µM
MIC [4]: > 34.2 µM
MIC [5]: > 34.2 µM
MIC (C. albicans (ATCC 90028)): > 34.2 µM
MIC [6]: 17.1 µM
Dox/P.a: concentration required to restore doxycycline activity (combination MIC) [7]: 53.4 µM
Eryth/E.c: concentration required to restore erythromycin activity (combination MIC) (E. coli (ATCC 25922) [8]): 26.7 µM
SMILES: O=C(CCC(=O)Nc1ccc2ccccc2c1)NCCCNCCCCCCCCNCCCNC(=O)CCC(=O)Nc1ccc2ccccc2c1.O=C(O)C(F)(F)F.O=C(O)C(F)(F)F [Compound 20d, N^1,N^8-Bis(3-(4-(naphthalen-2-ylamino)-4-oxobutanamido)propyl)octane-1,8-diaminium 2,2,2-trifluoroacetate]
IC50 (Cytotoxicity assay): > 34.2 µM
Hemolysis HC10 (human red blood cells): >34.2 µM
Dox/P.a fold change [7]: > 2 fold
Eryth/E.c fold change (E. coli (ATCC 25922) [8]): 4 fold

MIC [1]: 16 µM
MIC (MRSA (ATCC 43300)): ≤ 0.32 µM
MIC [2]: 32 µM
MIC (E. coli (ATCC 25922) [3]): 16 µM
MIC [4]: > 41 µM
MIC [5]: > 41 µM
MIC (C. albicans (ATCC 90028)): > 41 µM
MIC [6]: ≤ 0.32 µM
Dox/P.a: concentration required to restore doxycycline activity (combination MIC) [7]: 4.0 µM and 4.00 µM
Eryth/E.c: concentration required to restore erythromycin activity (combination MIC) (E. coli (ATCC 25922) [8]): 4.0 µM
SMILES: O=C(NCCCNCCCCCCCNCCCNC(=O)c1ccc2ccccc2c1)c1ccc2ccccc2c1.O=C(O)C(F)(F)F.O=C(O)C(F)(F)F [Compound 19c, N^1,N^7-Bis(3-(2-naphthamido)propyl)heptane-1,7-diaminium 2,2,2-trifluoroacetate]
IC50 (Cytotoxicity assay): 20.5 µM
Hemolysis HC10 (human red blood cells): >41.0 µM
Dox/P.a fold change [7]: 8 fold
Eryth/E.c fold change (E. coli (ATCC 25922) [8]): 4 fold

MIC [1]: > 200 µM
MIC (MRSA (ATCC 43300)): > 35.2 µM
MIC [2]: > 200 µM
MIC (E. coli (ATCC 25922) [3]): 50 µM
MIC [4]: > 35.2 µM
MIC [5]: > 35.2 µM
MIC (C. albicans (ATCC 90028)): > 35.2 µM
MIC [6]: 35.2 µM
Dox/P.a: concentration required to restore doxycycline activity (combination MIC) [7]: 25 µM
Eryth/E.c: concentration required to restore erythromycin activity (combination MIC) (E. coli (ATCC 25922) [8]): 50 µM
SMILES: O=C(CCC(=O)Nc1ccc2ccccc2c1)NCCCNCCCCCCNCCCNC(=O)CCC(=O)Nc1ccc2ccccc2c1.O=C(O)C(F)(F)F.O=C(O)C(F)(F)F [Compound 20b, N^1,N^6-Bis(3-(4-(naphthalen-2-ylamino)-4-oxobutanamido)propyl)hexane-1,6-diaminium 2,2,2-trifluoroacetate]
IC50 (Cytotoxicity assay): > 35.2 µM
Hemolysis HC10 (human red blood cells): >35.2 µM
Dox/P.a fold change [7]: > 8 fold
Eryth/E.c fold change (E. coli (ATCC 25922) [8]): 1 fold

The next lines start with the molecule.

SMILES: O=C(CCC(=O)Nc1cccc2ccccc12)NCCCNCCCCCCCCNCCCNC(=O)CCC(=O)Nc1cccc2ccccc12.O=C(O)C(F)(F)F.O=C(O)C(F)(F)F [Compound 18d, N^1,N^8-Bis(3-(4-(naphthalen-1-ylamino)-4-oxobutanamido)propyl)octane-1,8-diaminium 2,2,2-trifluoroacetate]
MIC [1]: 107 µM
MIC (MRSA (ATCC 43300)): > 34.2 µM
MIC [2]: > 107 µM
MIC (E. coli (ATCC 25922) [3]): > 107 µM
MIC [4]: > 34.2 µM
MIC [5]: > 34.2 µM
MIC (C. albicans (ATCC 90028)): > 34.2 µM
MIC [6]: > 34.2 µM
IC50 (Cytotoxicity assay): > 34.2 µM
Hemolysis HC10 (human red blood cells): >34.2 µM
Dox/P.a: concentration required to restore doxycycline activity (combination MIC) [7]: > 107 µM
Dox/P.a fold change [7]: 1 fold
Eryth/E.c: concentration required to restore erythromycin activity (combination MIC) (E. coli (ATCC 25922) [8]): 107 µM
Eryth/E.c fold change (E. coli (ATCC 25922) [8]): 1 fold

SMILES: O=C(NCCCNCCCCCCCCCCCCNCCCNC(=O)c1cccc2ccccc12)c1cccc2ccccc12.O=C(O)C(F)(F)F.O=C(O)C(F)(F)F [Compound 17f, N^1,N^12-Bis(3-(1-naphthamido)propyl)dodecane-1,12-diaminium 2,2,2-trifluoroacetate]
MIC [1]: 25 µM
MIC (MRSA (ATCC 43300)): 0.29 µM
MIC [2]: 300 µM
MIC (E. coli (ATCC 25922) [3]): 100 µM
MIC [4]: > 37.6 µM
MIC [5]: 0.29 µM
MIC (C. albicans (ATCC 90028)): > 37.6 µM
MIC [6]: 0.29 µM
IC50 (Cytotoxicity assay): > 37.6 µM
Hemolysis HC10 (human red blood cells): >37.6 µM
Dox/P.a: concentration required to restore doxycycline activity (combination MIC) [7]: 300 µM
Dox/P.a fold change [7]: 1 fold
Eryth/E.c: concentration required to restore erythromycin activity (combination MIC) (E. coli (ATCC 25922) [8]): 50 µM
Eryth/E.c fold change (E. coli (ATCC 25922) [8]): 2 fold

SMILES: O=C(NCCCNCCCCCCCCNCCCNC(=O)c1cccc2ccccc12)c1cccc2ccccc12.O=C(O)C(F)(F)F.O=C(O)C(F)(F)F [Compound 17d, N^1,N^8-Bis(3-(1-naphthamido)propyl)octane-1,8-diaminium 2,2,2-trifluoroacetate]
MIC [1]: 50 µM
MIC (MRSA (ATCC 43300)): > 40.3 µM
MIC [2]: > 100 µM
MIC (E. coli (ATCC 25922) [3]): 100 µM
MIC [4]: > 40.3 µM
MIC [5]: > 40.3 µM
MIC (C. albicans (ATCC 90028)): > 40.3 µM
MIC [6]: > 40.3 µM
IC50 (Cytotoxicity assay): > 40.3 µM
Hemolysis HC10 (human red blood cells): >40.3 µM
Eryth/E.c: concentration required to restore erythromycin activity (combination MIC) (E. coli (ATCC 25922) [8]): 31.5 µM
Eryth/E.c fold change (E. coli (ATCC 25922) [8]): 3 fold

SMILES: O=C(CCC(=O)Nc1cccc2ccccc12)NCCCNCCCCCCNCCCNC(=O)CCC(=O)Nc1cccc2ccccc12.O=C(O)C(F)(F)F.O=C(O)C(F)(F)F [Compound 18b, N^1,N^6-Bis(3-(4-(naphthalen-1-ylamino)-4-oxobutanamido)propyl)hexane-1,6-diaminium 2,2,2-trifluoroacetate]
MIC [1]: > 200 µM
MIC (MRSA (ATCC 43300)): > 35.2 µM
MIC [2]: > 200 µM
MIC (E. coli (ATCC 25922) [3]): > 200 µM
MIC [4]: > 35.2 µM
MIC [5]: > 35.2 µM
MIC (C. albicans (ATCC 90028)): > 35.2 µM
MIC [6]: > 35.2 µM
IC50 (Cytotoxicity assay): > 35.2 µM
Hemolysis HC10 (human red blood cells): >35.2 µM
Dox/P.a: concentration required to restore doxycycline activity (combination MIC) [7]: 100 µM
Dox/P.a fold change [7]: > 2 fold
Eryth/E.c: concentration required to restore erythromycin activity (combination MIC) (E. coli (ATCC 25922) [8]): 200 µM
Eryth/E.c fold change (E. coli (ATCC 25922) [8]): 1 fold
